Calls of active or inactive are those of the source. No cut-off for these calls is given here.
Columns and labels:
cells [1] = format: functional, cell-based; conditions: Homo sapiens, UCH1, 72 h
Description: Antiproliferative activity against human UCH1 cells measured after 72 hrs by alamar blue assay

cells [2] = format: functional, cell-based; conditions: Homo sapiens, UCH2, 72 h
Description: Antiproliferative activity against human UCH2 cells measured after 72 hrs by alamar blue assay

[3] = biological target: T1, Epidermal growth factor receptor (Homo sapiens, UniProt P00533);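 for IC50: human A431 cells pretreated 90 min, then EGF stimulated, sandwich ELISA measured decrease in EGF-induced receptor autophosphorylation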;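 for Kd: KINOMEscan competition binding with recombinant partial wild-type human EGFR (residues R669–V1011) produced in bacteria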
T1 sequence (P00533 whole entry, the tested form may be a part): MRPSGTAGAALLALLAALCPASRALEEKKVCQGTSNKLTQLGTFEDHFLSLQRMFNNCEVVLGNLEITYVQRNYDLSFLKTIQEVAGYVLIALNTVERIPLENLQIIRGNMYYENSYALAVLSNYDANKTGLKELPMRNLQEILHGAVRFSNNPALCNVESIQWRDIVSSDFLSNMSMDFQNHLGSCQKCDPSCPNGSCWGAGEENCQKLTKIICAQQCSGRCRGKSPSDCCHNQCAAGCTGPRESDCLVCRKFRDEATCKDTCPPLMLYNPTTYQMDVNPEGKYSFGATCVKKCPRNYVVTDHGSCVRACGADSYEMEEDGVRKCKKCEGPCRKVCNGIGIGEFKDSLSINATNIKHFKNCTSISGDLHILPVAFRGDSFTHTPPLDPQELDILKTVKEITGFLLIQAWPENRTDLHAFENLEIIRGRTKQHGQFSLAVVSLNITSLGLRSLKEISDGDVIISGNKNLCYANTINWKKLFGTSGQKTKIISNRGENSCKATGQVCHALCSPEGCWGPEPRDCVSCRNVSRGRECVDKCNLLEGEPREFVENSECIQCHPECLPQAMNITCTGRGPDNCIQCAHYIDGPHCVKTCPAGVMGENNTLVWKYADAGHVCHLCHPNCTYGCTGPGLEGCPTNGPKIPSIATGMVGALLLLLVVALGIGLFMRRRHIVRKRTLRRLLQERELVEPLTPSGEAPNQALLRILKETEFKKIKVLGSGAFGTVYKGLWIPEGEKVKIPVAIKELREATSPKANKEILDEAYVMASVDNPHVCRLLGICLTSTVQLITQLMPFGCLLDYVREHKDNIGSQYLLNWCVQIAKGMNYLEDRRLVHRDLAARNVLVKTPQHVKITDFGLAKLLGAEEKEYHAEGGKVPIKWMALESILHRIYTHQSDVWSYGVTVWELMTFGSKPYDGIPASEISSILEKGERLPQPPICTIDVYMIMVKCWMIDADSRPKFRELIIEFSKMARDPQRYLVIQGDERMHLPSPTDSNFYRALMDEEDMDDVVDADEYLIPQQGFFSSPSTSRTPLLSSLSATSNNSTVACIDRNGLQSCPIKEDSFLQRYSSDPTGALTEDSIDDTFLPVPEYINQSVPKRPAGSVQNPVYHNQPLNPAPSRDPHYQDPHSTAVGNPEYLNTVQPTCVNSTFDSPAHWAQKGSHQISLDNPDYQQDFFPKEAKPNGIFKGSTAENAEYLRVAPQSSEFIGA
Description: Binding affinity to wild-type human partial length EGFR (R669 to V1011 residues) expressed in bacterial expression system by Kinomescan method

[4] = biological target: T2, Cyclin-G-associated kinase (Homo sapiens, UniProt O14976); assay: Binding affinity to wild-type human partial length GAK (G13 to Y338 residues) expressed in bacterial expression system by Kinomescan method
T2 sequence (O14976 whole entry): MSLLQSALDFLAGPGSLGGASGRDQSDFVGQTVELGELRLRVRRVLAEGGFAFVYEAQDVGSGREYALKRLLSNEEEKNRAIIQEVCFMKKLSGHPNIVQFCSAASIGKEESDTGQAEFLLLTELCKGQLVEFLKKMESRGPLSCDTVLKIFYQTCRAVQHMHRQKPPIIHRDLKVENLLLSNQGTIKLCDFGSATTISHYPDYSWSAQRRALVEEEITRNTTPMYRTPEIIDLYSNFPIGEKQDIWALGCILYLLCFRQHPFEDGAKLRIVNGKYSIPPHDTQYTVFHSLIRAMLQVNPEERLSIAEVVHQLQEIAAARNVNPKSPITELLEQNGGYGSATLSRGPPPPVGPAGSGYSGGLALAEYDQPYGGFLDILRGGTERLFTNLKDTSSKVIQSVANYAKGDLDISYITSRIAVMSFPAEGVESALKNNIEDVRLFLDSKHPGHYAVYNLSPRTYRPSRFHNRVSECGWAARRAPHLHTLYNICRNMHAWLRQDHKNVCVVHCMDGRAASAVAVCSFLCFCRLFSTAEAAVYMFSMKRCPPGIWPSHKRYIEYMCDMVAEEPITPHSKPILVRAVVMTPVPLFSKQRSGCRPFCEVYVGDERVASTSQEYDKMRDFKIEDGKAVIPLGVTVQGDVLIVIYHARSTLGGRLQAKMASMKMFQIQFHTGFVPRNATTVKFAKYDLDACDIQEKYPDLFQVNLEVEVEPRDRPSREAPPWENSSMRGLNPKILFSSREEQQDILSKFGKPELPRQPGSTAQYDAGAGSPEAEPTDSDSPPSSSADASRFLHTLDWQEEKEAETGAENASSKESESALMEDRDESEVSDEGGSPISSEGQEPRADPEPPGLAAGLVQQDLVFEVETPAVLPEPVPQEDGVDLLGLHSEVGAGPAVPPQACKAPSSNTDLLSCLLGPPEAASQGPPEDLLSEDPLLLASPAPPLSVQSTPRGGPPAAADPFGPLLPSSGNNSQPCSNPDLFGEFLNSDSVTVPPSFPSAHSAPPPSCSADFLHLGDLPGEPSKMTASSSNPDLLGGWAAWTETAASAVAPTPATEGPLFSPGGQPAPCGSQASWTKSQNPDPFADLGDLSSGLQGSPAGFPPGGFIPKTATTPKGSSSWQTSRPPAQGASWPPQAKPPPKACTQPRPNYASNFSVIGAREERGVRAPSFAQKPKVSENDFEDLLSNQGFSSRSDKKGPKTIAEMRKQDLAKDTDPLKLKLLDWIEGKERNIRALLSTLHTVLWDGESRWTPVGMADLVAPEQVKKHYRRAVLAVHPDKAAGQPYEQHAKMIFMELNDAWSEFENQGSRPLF

[5] = biological target: T1, Epidermal growth factor receptor; format: cell-based
Description: Inhibition of EGFR in human A431 cells assessed as reduction in EGF-stimulated EGFR autophosphorylation preincuabted for 90 mins followed by EGF-stimulation by sandwich-ELISA

[6] = biological target: T2, Cyclin-G-associated kinase; assay: Inhibition of tracer 5 binding to human N-terminal nano luciferase-fused GAK expressed in HEK293 cells measured after 2 hrs by nanoBRET assay; format: cell-based
cells [7] = format: ADME, cell-based; conditions: Homo sapiens, WS1, 72 h
Description: Cytotoxicity against human WS1 cells measured after 72 hrs by alamar blue assay

[8] = biological target: T3, Cyclin-G-associated kinase (Homo sapiens) (UniProt O14976); assay: Inhibition of tracer 5 binding to human N-terminal nano luciferase-fused GAK expressed in HEK293 cells at 5 uM measured after 2 hrs by nanoBRET assay relative to control; format: cell-based
T3 sequence (whole entry): T2 sequence (O14976 whole entry)

[9] = biological target: T1, Epidermal growth factor receptor; assay: Inhibition of EGFR in human UCH1 cells assessed as reduction in EGF-induced EGFR phosphorylation at Y1068 residue at 10 uM preincubated for 4 hrs followed by EGF--stimulation and measured after 15 mins by Western blot analysis relative to control; format: cell-based
cells [10] = format: functional, cell-based; conditions: Homo sapiens, 72 h
Description: Antiproliferative activity against human UCH7 cells measured after 72 hrs by alamar blue assay

cells [11] = format: functional, cell-based; conditions: Homo sapiens, 72 h; remark: listed apart in the source
Description: Antiproliferative activity against human UMCHOR1 cells measured after 72 hrs by alamar blue assay

cells [12] = format: functional, cell-based; conditions: Homo sapiens, 72 h; remark: listed apart in the source
Description: Antiproliferative activity against human CH22 cells measured after 72 hrs by alamar blue assay

cells [13] = format: functional, cell-based; conditions: Homo sapiens, 72 h; remark: listed apart in the source
Description: Antiproliferative activity against human UCH12 cells measured after 72 hrs by alamar blue assay

cells [14] = format: functional, cell-based; conditions: Homo sapiens, 72 h; remark: listed apart in the source
Description: Antiproliferative activity against human UCH14 cells measured after 72 hrs by alamar blue assay

[15] = Effect on total EGFR expression in human UCH1 cells at 1 to 10 uM measured after 4 hrs by Western blot analysis; format: ADME, cell-based
[16] = Effect on total EGFR expression in human UCH2 cells at 1 to 10 uM measured after 4 hrs by Western blot analysis; format: ADME, cell-based
[17] = biological target: T1, Epidermal growth factor receptor; assay: Inhibition of EGFR in human UCH1 cells assessed as reduction in EGF-induced EGFR phosphorylation at Y1068 residue at 1 uM preincubated for 4 hrs followed by EGF--stimulation and measured after 15 mins by Western blot analysis relative to control; format: cell-based
[18] = biological target: T1, Epidermal growth factor receptor; assay: Inhibition of EGFR in human UCH2 cells assessed as reduction in EGF-induced EGFR phosphorylation at Y1068 residue at 10 uM preincubated for 4 hrs followed by EGF--stimulation and measured after 15 mins by Western blot analysis relative to control; format: cell-based
[19] = biological target: T1, Epidermal growth factor receptor; assay: Inhibition of EGFR in human UCH2 cells assessed as reduction in EGF-induced EGFR phosphorylation at Y1068 residue at 1 uM preincubated for 4 hrs followed by EGF--stimulation and measured after 15 mins by Western blot analysis relative to control; format: cell-based
[20] = biological target: T3, Cyclin-G-associated kinase (Homo sapiens); assay: Binding affinity to GAK in human SUM159 cell lysates by multiplexed inhibitor bead profiling-based LC-MS/MS analysis; format: subcellular; conditions: Lysate
[21] = biological target: T1, Epidermal growth factor receptor; assay: Binding affinity to wild-type human partial length EGFR (R669 to V1011 residues) expressed in bacterial expression system at 1 uM by Kinomescan method relative to control
[22] = biological target: Pyruvate kinase PKM (Homo sapiens) (UniProt P14618); assay: Binding affinity to PKM in human SUM159 cell lysates by multiplexed inhibitor bead profiling-based LC-MS/MS analysis; format: subcellular; conditions: Lysate
Chain of Pyruvate kinase PKM (Homo sapiens) (P14618 2-531 limits assumed): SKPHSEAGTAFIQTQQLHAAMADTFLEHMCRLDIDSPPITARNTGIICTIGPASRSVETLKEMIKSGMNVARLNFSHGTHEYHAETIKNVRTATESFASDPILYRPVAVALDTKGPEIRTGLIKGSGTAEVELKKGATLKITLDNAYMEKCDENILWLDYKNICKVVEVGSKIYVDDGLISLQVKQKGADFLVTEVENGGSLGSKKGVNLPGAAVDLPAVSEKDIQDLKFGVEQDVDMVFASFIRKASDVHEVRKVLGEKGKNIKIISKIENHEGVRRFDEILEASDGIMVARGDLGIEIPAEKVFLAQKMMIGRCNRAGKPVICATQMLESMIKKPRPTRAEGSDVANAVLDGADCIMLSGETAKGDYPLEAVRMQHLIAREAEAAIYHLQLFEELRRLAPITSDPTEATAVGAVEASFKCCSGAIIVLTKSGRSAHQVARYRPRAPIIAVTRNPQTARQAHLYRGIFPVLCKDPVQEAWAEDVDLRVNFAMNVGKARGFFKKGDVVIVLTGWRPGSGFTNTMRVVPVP

[23] = biological target: Mitotic checkpoint serine/threonine-protein kinase BUB1 (Homo sapiens) (UniProt O43683); assay: Binding affinity to BUB1 in human SUM159 cell lysates by multiplexed inhibitor bead profiling-based LC-MS/MS analysis; format: subcellular; conditions: Lysate
Chain of Mitotic checkpoint serine/threonine-protein kinase BUB1 (Homo sapiens) (O43683 whole entry, looked up): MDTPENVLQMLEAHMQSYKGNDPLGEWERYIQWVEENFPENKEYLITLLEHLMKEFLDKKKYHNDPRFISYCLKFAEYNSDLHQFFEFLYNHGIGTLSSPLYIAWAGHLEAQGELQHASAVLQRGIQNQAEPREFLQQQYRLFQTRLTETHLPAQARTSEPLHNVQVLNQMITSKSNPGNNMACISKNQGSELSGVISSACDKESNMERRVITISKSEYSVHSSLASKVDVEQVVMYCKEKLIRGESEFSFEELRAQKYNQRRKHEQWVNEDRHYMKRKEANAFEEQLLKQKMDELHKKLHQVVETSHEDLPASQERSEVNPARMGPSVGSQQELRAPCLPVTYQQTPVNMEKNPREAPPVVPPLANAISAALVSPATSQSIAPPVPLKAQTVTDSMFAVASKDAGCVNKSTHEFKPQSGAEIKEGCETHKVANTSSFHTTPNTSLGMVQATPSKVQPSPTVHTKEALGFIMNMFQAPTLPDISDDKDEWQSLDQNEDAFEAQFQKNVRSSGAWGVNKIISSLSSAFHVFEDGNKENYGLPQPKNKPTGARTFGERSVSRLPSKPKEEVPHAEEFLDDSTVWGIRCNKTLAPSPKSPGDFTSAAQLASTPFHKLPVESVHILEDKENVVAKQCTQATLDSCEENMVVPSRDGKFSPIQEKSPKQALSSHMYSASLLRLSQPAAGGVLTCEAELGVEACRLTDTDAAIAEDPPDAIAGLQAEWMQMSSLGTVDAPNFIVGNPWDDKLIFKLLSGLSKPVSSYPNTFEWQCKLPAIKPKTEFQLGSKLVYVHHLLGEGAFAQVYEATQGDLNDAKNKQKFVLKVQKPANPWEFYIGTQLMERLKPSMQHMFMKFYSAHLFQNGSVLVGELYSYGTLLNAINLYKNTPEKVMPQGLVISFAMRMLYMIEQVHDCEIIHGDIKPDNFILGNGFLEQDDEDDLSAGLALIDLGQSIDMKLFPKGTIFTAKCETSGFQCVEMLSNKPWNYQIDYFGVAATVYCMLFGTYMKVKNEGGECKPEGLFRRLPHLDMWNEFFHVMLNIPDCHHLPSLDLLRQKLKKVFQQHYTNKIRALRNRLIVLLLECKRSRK

IC50 (cells [1]) [µM]	IC50 (cells [2]) [µM]	Kd [3] [µM]	Kd [4] [µM]	IC50 [5] [µM]	IC50 [6] [µM]	IC50 (cells [7]) [µM]	Compound	also measured
25	> 50	0.053	0.15	2.4	2.6	> 50	COCCOc1cc2ncnc(Nc3cc(OC)c(OC)c(OC)c3)c2cc1OCCOC	
5.5	2.4						CCOc1cc2ncc(C#N)c(Nc3ccc(OCc4ccccn4)c(Cl)c3)c2cc1NC(=O)/C=C/CN(C)C [NERATINIB]	
13	> 50	0.0013	5	< 0.015		> 10	COc1cc2ncnc(Nc3ccc(OCc4cccc(F)c4)c(Cl)c3)c2cc1OC	inhibition [8]: 12%
0.66	26				0.26	9.7	COc1cc2ncnc(Nc3cccc(Br)c3)c2cc1OC	
7.3	> 10		0.01		0.35	28	COc1cc2ncnc(Nc3cc(OC)c(OC)c(OC)c3)c2cc1OC	
0.92	> 50	0.00055	0.0068		0.072	4.4	C#Cc1cccc(Nc2ncnc3cc(OC)c(OC)cc23)c1	inhibition [9]: 100%; IC50 (cells [10]): 23 µM; IC50 (cells [11]): 18 µM; IC50 (cells [12]): > 50 µM; IC50 (cells [13]): > 50 µM; IC50 (cells [14]): > 50 µM; Activity [15]: Non-Toxic; Activity [16]: Non-Toxic; inhibition [17]: 63.4%; inhibition [18]: 100%; inhibition [19]: 100%; Activity [20]: Active
15	36						COc1cc(Nc2c(C#N)cnc3cc(OCCCN4CCN(C)CC4)c(OC)cc23)c(Cl)cc1Cl [BOSUTINIB]	
50	> 50	6.1	0.19	> 50		45	COc1cc(Nc2ncnc3ccc(C(F)(F)F)cc23)cc(OC)c1OC	inhibition [8]: 60%
0.08	17						C=CC(=O)Nc1cc2c(Nc3ccc(F)c(Cl)c3)ncnc2cc1OCCCN1CCOCC1 [CANERTINIB]	
8.8	> 50	0.0024	0.012	0.09	0.13	14	COc1cc2ncc(C#N)c(Nc3cccc(Br)c3)c2cc1OC	
> 50	30			> 50		> 50	CC(C)(C)S(=O)(=O)c1cc2c(Nc3ccc4scnc4c3)ncnc2cc1OCCO	inhibition [8]: 0%
3.6	7.9		0.24		0.51	2.9	COc1cc2nccc(Nc3cccc(Br)c3)c2cc1OC	IC50 (cells [10]): > 50 µM; IC50 (cells [12]): 6.5 µM; IC50 (cells [13]): > 50 µM; IC50 (cells [14]): > 50 µM; Activity [20]: Active; Activity [22]: Active; Activity [23]: Active
7.6	16	0.39	1.2	0.34		12	C#Cc1cccc(Nc2ccnc3cc(OCCOC)c(OCCOC)cc23)c1	
17	> 50	0.0018	0.0026	0.061	0.031	> 50	C#Cc1cccc(Nc2c(C#N)cnc3cc(OC)c(OC)cc23)c1	
11	25	0.41		27	0.023	14	COc1cc2nccc(Nc3cc(OC)c(OC)c(OC)c3)c2cc1OC	IC50 (cells [10]): 30 µM; IC50 (cells [11]): 24 µM; IC50 (cells [12]): 12 µM; IC50 (cells [13]): 33 µM; IC50 (cells [14]): 19 µM
> 50	> 50			2.2		> 50	COc1cc(N(C)c2ccnc3ccc(C(F)(F)F)cc23)cc(OC)c1OC	inhibition [8]: 7%

More lines, now with the values behind:

Compound	IC50 (cells [1]) [µM]	IC50 (cells [2]) [µM]	Kd [3] [µM]	Kd [4] [µM]	IC50 [5] [µM]	IC50 [6] [µM]	IC50 (cells [7]) [µM]	also measured
COc1cc2ncnc(Nc3ccc(F)c(Cl)c3)c2cc1NC(=O)/C=C/CN1CCCCC1 [DACOMITINIB ANHYDROUS]	0.05	2.7						
COc1cc2ncc(C#N)c(Nc3cc(OC)c(OC)c(OC)c3)c2cc1OC	11	> 10	0.0074	0.00042	7.1	0.0024	> 50	
CNC(=O)CN1CCC(Oc2cc3c(Nc4cccc(Cl)c4F)ncnc3cc2OC)CC1 [SAPITINIB]	0.42	5.7						
COc1cc2c(Nc3ccc(Cl)c(Cl)c3F)ncnc2cc1OC[C@@H]1C[C@@H]2CN(C)C[C@@H]2C1 [TESEVATINIB]	0.15	1.1						
COc1cc(Nc2ccnc3ccc(C(F)(F)F)cc23)cc(OC)c1OC	> 50	33			> 50		21	Activity [21]: < 50%
CN1CCN(CCOc2cc(OC3CCOCC3)c3c(Nc4c(Cl)ccc5c4OCO5)ncnc3c2)CC1 [SARACATINIB]	4.3	28						
CN(C)C/C=C/C(=O)Nc1cc2c(Nc3ccc(F)c(Cl)c3)ncnc2cc1O[C@H]1CCOC1 [AFATINIB]	0.1	6.4						
COc1cc2/c(=N/c3ccc(Br)cc3F)nc[nH]c2cc1OCC1CCN(C)CC1 [VANDETANIB]	1	4.2						
COc1cc(Nc2ccnc3ccc(Br)cc23)cc(OC)c1OC	> 50	> 50			> 50		11	Activity [21]: < 50%
C=CC(=O)N1CCC(Oc2cc3c(Nc4ccc(Cl)c(Cl)c4F)ncnc3cc2OC)CC1 [POZIOTINIB]	0.11	8.1						
COc1cc(Nc2cc(C)nc3ccc(C(F)(F)F)cc23)cc(OC)c1OC	37	> 50			> 50		49	inhibition [8]: 0%
CCOc1cc2ncc(C#N)c(Nc3ccc(F)c(Cl)c3)c2cc1NC(=O)/C=C/CN(C)C [PELITINIB]	0.09	1.6						

— ChEMBL document CHEMBL4393671, “Design of a Cyclin G Associated Kinase (GAK)/Epidermal Growth Factor Receptor (EGFR) Inhibitor Set to Interrogate the Relationship of EGFR and GAK in Chordoma” (J Med Chem, 2019)
